The values below are quoted from earlier work in US6969532B2, “Compounds inhibiting COX-2 and iNOS promoter activities” (priority 2000, dated 2005).

The series relates to human adenomatous polyposis. The note with it: randomized clinical trial.

For the compound `Cc1ccc(-c2cc(C(F)(F)F)nn2-c2ccc(S(N)(=O)=O)cc2)cc1` [Celebrex], the “extent of polyp reduction” value is “about 30%”.
